Tests used:
ET1/PETR3 = experiment: CFP expression in CHO cells infected with ET1-encoding lentivirus (pMF391) and transfected with pWW44; assay type: cell-based; conditions: 2 μg/ml erythromycin
[1] = test system: MphR(A) or MphR(A)-NLS / plant promoters PETRpON4, PETRpON8; experiment: EpON erythromycin-inducible GUS expression in Nicotiana tabacum SR1 suspension cells; assay type: cell-based; conditions: 250 μg/ml erythromycin
Method: The transformation protocol of SR1 cells was adapted from Wu and Feng (1999, Plant Cell Reports 18: 381-386). In brief, 200 mg of exponentially growing SR1 cells were harvested by centrifugation. The cells were incubated for 15 min. in 2% DMSO and washed twice in fresh medium. Cells were subsequently resuspended in electroporation buffer (5 mM CaCl2; 10 mM NaCl2; 0.4 M sucrose; 8.7% glycerol; 4 mM ascorbate; 10 mM HEPES; pH 6.8) and mixed with desired DNA at a concentration of 0.2 μg/μl. The cell-DNA mixture was incubated for 10 min. on ice electroporated at 700 V/cm and 980 μF using a BioRad Gene Pulser and appropriate cuvettes. Following electroporation, cells were kept on ice for 10 min. and deplasmolyzed by 4 subsequent additions of 100 μl LS medium at 5 min. intervals. Transformation rates 20%±5% are typically reached with SR1 cells using this modified protocol.
Transformed SR1 cells were incubated at 25° C. for 48 h while rocking at 110 rpm. […] Cells were lysed in extraction buffer (50 mM NaH2PO4; 10 mM EDTA; 0.1% Triton X-100; 0.1% sodium lauryl sarcosine; 10 mM β-mercaptoethanol; pH 7.0) by freezing them in liquid nitrogen and grinding them using a micropestle. Soluble protein extract was collected by centrifugation for 20 min. at 15,000 rpm and 4° C. Protein concentration of plant extracts was determined using a Bradford assay (Bradford, 1976, Anal. Biochem. 72: 248-254). The GUS expression assay was performed following a modified protocol by Jefferson et al. (1987; EMBO J. 6: 3901-3907). In brief, 100 μl of cell extract were incubated in extraction buffer (see above) also containing 1 mM of the β-glucuronidase substrate 4-methylumbelliferyl glucuronide (MUG; Duchefa, NL). The reaction mixture was incubated at 37° C. and 100 μl aliquots were removed at appropriate time intervals and the reaction stopped by addition of 1.9 ml of 0.2 M K2CO3. The fluorescence time course was determined using typical 365 nm/455 nm excitation/emission profiles and a Shimadzu RF-5001 PC spectrofluorophotometer.
For regulated expression in transgenic plants and plant tissue culture an inducible rather than a repressible gene regulation system would be desirable. This enables induction of transgene […] by addition of the antibiotic rather than by its withdrawal. We therefore constructed an erythromycin-inducible plant gene regulation system (EpON) which consisted of the E. coli MphR(A) repressor protein (SEQ ID NO: 4) which binds, in the absence of macrolide antibiotics, to the ETR binding module cloned downstream of a strong constitutive plant promoter (PCaMV35S). Binding of MphR(A) to the ETR module blocks PCaMV35S-mediated target gene expression. […]

SMILES: CC[C@H]1OC(=O)[C@H](C)[C@@H](O[C@H]2C[C@@](C)(OC)[C@@H](O)[C@H](C)O2)[C@H](C)[C@@H](O[C@@H]2O[C@H](C)C[C@H](N(C)C)[C@H]2O)[C@](C)(O)C[C@@H](C)C(=O)[C@H](C)[C@@H](O)[C@]1(C)O [Erythromycin]
- CFP expression (fluorescence) (ET1/PETR3): complete repression
- GUS activity upon addition of erythromycin ([1]; pBP8/pBP15 (MphR(A)-NLS / PETRpON4)): 313.5±39.6 pmoles 4-MU min^−1 mg^−1 protein^−1
- GUS activity upon addition of erythromycin ([1]; pBP8/pBP35 (MphR(A)-NLS / PETRpON8)): 283.6±24.7 pmoles 4-MU min^−1 mg^−1 protein^−1
- GUS activity upon addition of erythromycin ([1]; pBP9/pBP15 (MphR(A) / PETRpON4)): 305.2±24.9 pmoles 4-MU min^−1 mg^−1 protein^−1
- GUS activity upon addition of erythromycin ([1]; pBP9/pBP35 (MphR(A) / PETRpON8)): 276.7±34.1 pmoles 4-MU min^−1 mg^−1 protein^−1

From patent US7273723B2, “Antibiotic-based gene regulation system” (priority 2001, dated 2007)
